Each structure is given as a SMILES string. Like-named read-outs stand apart in the source and are kept apart here.

The target of one data set is α1-adrenoceptors. Nature of the data set: α1-adrenoceptor competition binding ([3H]prazosin). The conditions noted are these: rat brain homogenates.
In another data set the target is β-adrenoceptors. Nature of the data set: β-adrenoceptor competition binding ([3H]dihydroalprenolol). The note with it: rat brain homogenates.
In the next data set the target is α2-adrenoceptors. The data set can be described thus: α2-adrenoceptor competition binding ([3H]clonidine). The conditions noted are these: rat brain homogenates.
A further data set addresses T1, Dopamine (D2) receptors (Rattus norvegicus, UniProt P61169).
T1 construct: from tissue; host or cells: rat brain homogenate / P2 membranes
The data set can be described thus: Dopamine D2 receptor competition binding ([3H](−)sulpiride).

For data set [1], the system named is Male, Swiss Webster mice. The data set can be described thus: Attenuation of cocaine-induced locomotor activity. Type of data set: in vivo. The note with it: for cocaine stimulated locomotor activity after pre-treatment: same ligand doses as baseline test, 15 min before cocaine 10 mg/kg i.p., 30 min, ANOVA.
Data set [2] concerns the target T2, muscarinic cholinergic receptors (Rattus norvegicus, UniProt P08482).
T2 construct: from tissue; host or cells: rat brain homogenate / P2 membranes
T2 sequence (P08482 1-460): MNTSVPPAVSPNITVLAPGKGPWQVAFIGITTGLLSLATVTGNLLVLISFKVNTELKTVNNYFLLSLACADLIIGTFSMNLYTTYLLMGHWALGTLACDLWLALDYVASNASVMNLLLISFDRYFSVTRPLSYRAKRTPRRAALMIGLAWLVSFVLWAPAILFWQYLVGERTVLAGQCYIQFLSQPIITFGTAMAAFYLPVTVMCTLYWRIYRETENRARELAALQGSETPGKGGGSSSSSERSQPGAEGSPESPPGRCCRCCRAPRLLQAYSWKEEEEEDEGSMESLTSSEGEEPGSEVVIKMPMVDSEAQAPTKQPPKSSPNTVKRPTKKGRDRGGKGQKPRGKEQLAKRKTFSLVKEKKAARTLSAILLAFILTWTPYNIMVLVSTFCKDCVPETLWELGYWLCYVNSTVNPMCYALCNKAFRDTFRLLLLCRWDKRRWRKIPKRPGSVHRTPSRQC
Nature of the data set: Muscarinic cholinergic receptor competition binding.

The target in another data set is T3, σ1 receptors (Cavia porcellus, UniProt Q60492).
T3 construct: Crude P2 membranes were prepared from guinea pig brain, rat brain, or rat liver; from tissue; host or cells: guinea pig brain (crude P2 membranes)
T3 sequence (Q60492 whole entry): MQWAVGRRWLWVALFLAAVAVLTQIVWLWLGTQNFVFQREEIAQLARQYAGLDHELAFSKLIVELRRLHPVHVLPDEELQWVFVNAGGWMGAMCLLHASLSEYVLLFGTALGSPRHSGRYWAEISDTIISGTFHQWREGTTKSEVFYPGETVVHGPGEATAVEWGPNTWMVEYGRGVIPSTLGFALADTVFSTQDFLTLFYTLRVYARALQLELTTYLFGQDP
Nature of the data set: σ1 receptor competition binding. Details: species or system guinea pig.

A further data set deals with 5-HT1 receptors. Nature of the data set: 5-HT1 receptor competition binding ([3H]5-HT). The note with it: rat brain homogenates.
In data set [3] the target is PCP sites on NMDA receptors (Rattus norvegicus, UniProt P35439). The data set can be described thus: PCP site competition binding ([3H]TCP).
Data set [4] has as its system Male, Swiss Webster mice. The data set can be described thus: Effects of sigma ligands alone on baseline locomotor activity. It counts as in vivo. The conditions noted are these: 30 min; i.p. mg/kg: BD1008 1, BD1067 5, BD1047 30, LR172 5, BD1018 30, BD1063 30, LR132 30, LR176 10, YZ011 0.1, YZ027 1, YZ029 5.
The next data set deals with rat red nucleus. Nature of the data set: Acute dystonic reaction after microinjection into the rat red nucleus. Type of data set: in vivo. The note with it: alone and against sigma agonists such as DTG.
The target in a further data set is 5-HT2 receptors (Rattus norvegicus, UniProt P14842). Nature of the data set: 5-HT2 receptor competition binding ([3H]ketanserin).
Chain of 5-HT2 receptors (P14842 whole entry): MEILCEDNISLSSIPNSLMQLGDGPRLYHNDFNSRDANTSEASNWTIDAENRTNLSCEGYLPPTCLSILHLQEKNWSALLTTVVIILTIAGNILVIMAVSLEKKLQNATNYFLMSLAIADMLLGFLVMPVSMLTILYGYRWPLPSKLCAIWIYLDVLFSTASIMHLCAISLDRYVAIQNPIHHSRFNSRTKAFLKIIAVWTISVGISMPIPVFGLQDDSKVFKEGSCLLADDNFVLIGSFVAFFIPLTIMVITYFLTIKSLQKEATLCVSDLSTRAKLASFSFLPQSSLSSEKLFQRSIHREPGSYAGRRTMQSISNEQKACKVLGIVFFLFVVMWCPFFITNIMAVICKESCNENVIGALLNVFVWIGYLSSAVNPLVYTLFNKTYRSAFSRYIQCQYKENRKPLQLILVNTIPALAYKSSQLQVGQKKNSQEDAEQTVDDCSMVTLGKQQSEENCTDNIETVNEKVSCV
The subject of data set [5] is Male, Swiss Webster mice. Nature of the data set: Shift of the cocaine convulsion dose curve by sigma receptor agonists. The note with it: saline pre-treatment, cocaine 0-60 mg/kg i.p.
The test system of data set [6] is Male, Swiss Webster mice. Nature of the data set: Dose response for the behavioral toxic effects of cocaine (convulsions, death).
Data set [7] has as its system Male, Swiss Webster mice. Nature of the data set: Dose response for the locomotor stimulatory effects of cocaine. It counts as in vivo. The conditions noted are these: cocaine 0-20 mg/kg i.p., 30 min.
The mark [8] stands for this setting: after lethal dose of cocaine 125 mg/kg i.p.
Where [9] appears, read: cocaine alone 0-150 mg/kg i.p., observed 30 min.

T1 sequence (P61169 whole entry): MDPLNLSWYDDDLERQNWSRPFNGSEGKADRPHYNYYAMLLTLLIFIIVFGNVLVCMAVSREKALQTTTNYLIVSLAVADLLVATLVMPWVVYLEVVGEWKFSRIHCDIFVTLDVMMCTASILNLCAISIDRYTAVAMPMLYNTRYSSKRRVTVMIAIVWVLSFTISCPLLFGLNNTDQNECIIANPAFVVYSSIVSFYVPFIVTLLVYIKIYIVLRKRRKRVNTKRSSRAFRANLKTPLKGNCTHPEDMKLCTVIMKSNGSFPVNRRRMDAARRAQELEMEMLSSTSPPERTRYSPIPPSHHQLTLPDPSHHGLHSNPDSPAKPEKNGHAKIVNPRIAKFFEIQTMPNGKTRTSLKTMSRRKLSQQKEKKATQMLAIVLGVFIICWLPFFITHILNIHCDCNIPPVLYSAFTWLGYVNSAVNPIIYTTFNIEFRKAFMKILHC

As to `CN(C)CCN(C)CCc1ccc(Cl)c(Cl)c1` [BD1047], the IC50 on α1-adrenoceptors is greater than 10 µM; on β-adrenoceptors, 0.145 ± 0.1 µM; at α2-adrenoceptors it was greater than 10 µM; on Dopamine (D2) receptors it was greater than 10 µM; in [2] it was 8 ± 1 µM; on 5-HT1 receptors it was greater than 10 µM. For the same molecule, the values for the IC50 (in data set [3]; on 5-HT2 receptors) were greater than 10 µM and 4.67 ± 2.63 µM, respectively. The “cocaine stimulated locomotor activity after pre-treatment” value with Male, Swiss Webster mice [1] was “significant reduction in cocaine stimulated locomotor activity”. The molecule also came in with an inhibitory constant (Ki) at σ1 receptors of 0.0009 ± 0.00014 µM. The “baseline horizontal locomotor activity versus saline” value in the data set on Male, Swiss Webster mice [4] is on record as “no significant difference”. In addition, in the data set on rat red nucleus, the “agonist versus antagonist designation (dystonic head postures)” value is given as “functional antagonists”.
As to `CN1CCN(CCc2ccc(Cl)c(Cl)c2)CC1` [BD1063], the IC50 on α1-adrenoceptors is greater than 10 µM; on β-adrenoceptors it was greater than 10 µM; at α2-adrenoceptors it was greater than 10 µM; on Dopamine (D2) receptors (rat brain homogenates, [3H](−)sulpiride, read-out: Dopamine (D2)), greater than 10 µM; in [2] (rat brain homogenates, [3H]pirenzepine, read-out: mACh), 9.46 ± 0.75 µM; at 5-HT1 receptors, greater than 10 µM. Further, the IC50 in data set [3] (rat brain homogenates, [3H]TCP, read-out: NMDA (PCP)) is greater than 10 µM; at 5-HT2 receptors (rat brain homogenates, [3H]ketanserin, read-out: 5-HT2), 2.55 ± 2.42 µM. Moreover, the “cocaine stimulated locomotor activity after pre-treatment” value in the data set on Male, Swiss Webster mice [1] is “significant reduction in cocaine stimulated locomotor activity”. The molecule also gave a Ki on σ1 receptors of 0.009 ± 0.001 µM. Also, the “baseline horizontal locomotor activity versus saline” value in the data set with Male, Swiss Webster mice [4] is recorded as “no significant difference”. Besides, the “agonist versus antagonist designation (dystonic head postures)” value with rat red nucleus is listed as “functional antagonists”.
For the molecule `COC(=O)[C@H]1[C@@H](OC(=O)c2ccccc2)C[C@@H]2CC[C@H]1N2C` [cocaine], in the data set on Male, Swiss Webster mice [5], the “ED50 for cocaine-induced convulsions” value is reported as 58 mg/kg, i.p. In addition, the “ED50 for the locomotor stimulatory effects of cocaine” value in the data set on Male, Swiss Webster mice [1] (saline pre-treatment, cocaine 0-20 mg/kg i.p.) is reported as 6 mg/kg, i.p. Besides, in the data set on Male, Swiss Webster mice [6] (setting [8]), the “time at which mice are dead” value is “about 4.5 minutes” and the “time at which mice begin convulsing” value was “approximately 2 minutes”. In addition, in the data set on Male, Swiss Webster mice [6] (setting [9]), the “ED50 for cocaine-induced convulsions” value was 59 mg/kg, i.p and the “LD50 for cocaine-induced lethality” value is listed as 108 mg/kg, i.p. Further, the “dose that produced the peak level of locomotor activity” value in the data set on Male, Swiss Webster mice [7] is listed as 10 mg/kg, i.p.

These data come from patent US20030171347A1, “Sigma receptor antagonists having anti-cocaine properties and uses thereof” (priority 1998, published 2003).
